According to US9186335B2, “Hot melt TTS for administering rotigotine” (UCB PHARMA GMBH, priority 2002, dated 2015):

Assay: Rotigotine purity/stability in the hot-melt adhesive matrix by gradient HPLC with UV detection
Format: physicochemical
Details: short-term heating to temperatures up to at least 160° C.

stability under heating: remains stable
Compound: CCCN(CCc1cccs1)[C@H]1CCc2c(O)cccc2C1 [Rotigotine, (−)-5,6,7,8-tetrahydro-6-[propyl[2-(2-thienyl)ethyl)amino]-1-napththol]
